Laboratory results as given in patent US10344060B2 (priority 2013, dated 2019).
Read-outs that look alike come from different tables or passages of the source.

Target: hNav1.7 (Homo sapiens, UniProt Q15858)
Assay: cell-based
Assay type: cell-based
Details: for IC50: PatchXpress, read-out: PX hNav1.7 Tonic IC50
[1] = ratio of PX tonic IC50 values, Table 11

Chain of hNav1.7 (Q15858 whole entry): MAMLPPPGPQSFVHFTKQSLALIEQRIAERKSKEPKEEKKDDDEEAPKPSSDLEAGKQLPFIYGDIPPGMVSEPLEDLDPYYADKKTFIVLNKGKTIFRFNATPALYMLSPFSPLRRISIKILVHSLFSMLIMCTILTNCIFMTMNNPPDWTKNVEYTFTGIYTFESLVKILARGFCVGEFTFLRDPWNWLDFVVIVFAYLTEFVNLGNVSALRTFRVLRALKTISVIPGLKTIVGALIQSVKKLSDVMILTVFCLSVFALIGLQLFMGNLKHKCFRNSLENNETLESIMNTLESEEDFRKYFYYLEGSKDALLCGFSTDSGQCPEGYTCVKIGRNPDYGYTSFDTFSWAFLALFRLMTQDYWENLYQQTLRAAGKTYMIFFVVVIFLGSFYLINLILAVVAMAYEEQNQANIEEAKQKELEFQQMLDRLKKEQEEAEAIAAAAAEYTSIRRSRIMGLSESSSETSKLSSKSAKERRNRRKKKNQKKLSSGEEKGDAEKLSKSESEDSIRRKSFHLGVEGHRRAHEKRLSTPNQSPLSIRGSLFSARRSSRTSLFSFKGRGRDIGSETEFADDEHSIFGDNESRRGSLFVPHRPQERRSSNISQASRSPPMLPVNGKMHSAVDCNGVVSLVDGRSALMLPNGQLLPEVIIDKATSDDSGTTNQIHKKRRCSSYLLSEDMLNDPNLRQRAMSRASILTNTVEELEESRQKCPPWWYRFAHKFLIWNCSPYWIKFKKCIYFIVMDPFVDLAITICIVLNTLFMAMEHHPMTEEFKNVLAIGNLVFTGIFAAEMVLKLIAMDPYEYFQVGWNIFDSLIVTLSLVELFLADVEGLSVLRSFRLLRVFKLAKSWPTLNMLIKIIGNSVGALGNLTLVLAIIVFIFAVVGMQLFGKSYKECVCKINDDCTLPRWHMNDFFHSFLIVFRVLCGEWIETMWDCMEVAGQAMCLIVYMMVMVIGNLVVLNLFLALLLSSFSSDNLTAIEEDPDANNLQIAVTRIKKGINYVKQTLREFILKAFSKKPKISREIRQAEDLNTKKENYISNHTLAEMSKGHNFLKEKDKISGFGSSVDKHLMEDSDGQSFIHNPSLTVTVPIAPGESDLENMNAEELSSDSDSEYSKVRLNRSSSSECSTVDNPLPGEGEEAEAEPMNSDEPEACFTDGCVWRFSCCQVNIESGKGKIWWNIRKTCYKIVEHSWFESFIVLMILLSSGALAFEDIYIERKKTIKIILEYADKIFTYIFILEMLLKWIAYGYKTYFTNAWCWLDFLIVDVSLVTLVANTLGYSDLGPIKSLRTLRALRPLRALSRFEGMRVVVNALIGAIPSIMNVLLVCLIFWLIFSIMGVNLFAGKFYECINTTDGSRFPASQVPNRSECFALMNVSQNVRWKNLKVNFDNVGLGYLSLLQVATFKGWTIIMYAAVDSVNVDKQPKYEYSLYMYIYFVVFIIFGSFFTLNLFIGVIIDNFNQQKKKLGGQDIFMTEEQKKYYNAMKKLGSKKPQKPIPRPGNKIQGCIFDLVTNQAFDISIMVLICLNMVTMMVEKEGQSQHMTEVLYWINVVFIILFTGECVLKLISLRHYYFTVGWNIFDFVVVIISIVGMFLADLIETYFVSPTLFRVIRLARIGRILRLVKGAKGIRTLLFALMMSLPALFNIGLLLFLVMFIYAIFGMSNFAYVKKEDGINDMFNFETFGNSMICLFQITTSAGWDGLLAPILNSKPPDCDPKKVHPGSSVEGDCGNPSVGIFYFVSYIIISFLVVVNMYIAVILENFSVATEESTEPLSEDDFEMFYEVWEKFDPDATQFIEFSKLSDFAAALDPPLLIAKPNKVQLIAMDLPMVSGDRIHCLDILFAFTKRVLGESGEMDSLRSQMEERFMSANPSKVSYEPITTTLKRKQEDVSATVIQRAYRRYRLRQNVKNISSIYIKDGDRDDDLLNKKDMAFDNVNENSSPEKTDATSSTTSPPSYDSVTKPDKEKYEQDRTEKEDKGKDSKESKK

Row | Compound | IC50 (Table 12, tonic block) [µM] | Nav1.4/Nav1.7 [1] | further results
1 | C#CC[C@@H]1NC(=O)[C@@H]2CSSC[C@H](NC(=O)[C@H](Cc3ccc(O)cc3)NC(=O)[C@@H](N)CC#N)C(=O)N[C@@H](CCC(N)=O)C(=O)N[C@@H](CCCCN)C(=O)N[C@@H](Cc3c[nH]c4ccccc34)C(=O)N[C@@H](CCCC)C(=O)N[C@@H](Cc3c[nH]c4ccccc34)C(=O)N[C@@H]([C@@H](C)O)C(=O)N[C@H]3CSSC[C@H](NC(=O)[C@H](CCCNC(=N)N)NC(=O)[C@H](CC(C)C)NC(=O)CNC1=O)C(=O)N[C@@H](CCCCN)C(=O)N[C@@H](CC(C)C)C(=O)N[C@@H](Cc1c[nH]c4cc(C)ccc14)C(=O)N[C@H](C(=O)N[C@@H](CCCNC(=N)N)C(=O)N[C@@H](CCCCN)C(=O)N[C@@H](CCC(=O)O)C(=O)N[C@H](C(N)=O)[C@@H](C)CC)CSSC[C@H](NC(=O)[C@H](C)NC(=O)[C@H](CCCNC(=N)N)NC(=O)[C@H](CCCCN)NC(=O)[C@H](CO)NC(=O)[C@H](CC(=O)O)NC3=O)C(=O)N2 [compound 874] | 0.014 |  | 
2 | CSCC[C@@H]1NC(=O)[C@H](Cc2c[nH]c3ccccc23)NC(=O)[C@H](CCCCN)NC(=O)[C@H](CCC(N)=O)NC(=O)[C@@H](NC(=O)[C@@H](N)Cc2ccc(O)cc2)CSSC[C@@H]2NC(=O)[C@@H]3CSSC[C@@H](C(=O)N[C@@H](CCCNC(=N)N)C(=O)N[C@@H](CCCCN)C(=O)N[C@@H](Cc4ccc(O)cc4)C(=O)N[C@@H](CC(C)C)C(N)=O)NC(=O)[C@H](Cc4c[nH]c5ccccc45)NC(=O)[C@H](CC(C)C)NC(=O)[C@H](CCCCN)NC(=O)[C@H](CSSC[C@H](NC(=O)[C@H]([C@@H](C)O)NC(=O)[C@H](Cc4c[nH]c5ccccc45)NC1=O)C(=O)N[C@@H](CC(=O)O)C(=O)N[C@@H](CO)C(=O)N[C@@H](CCCCN)C(=O)N[C@@H](CCCNC(=N)N)C(=O)N[C@@H](C)C(=O)N3)NC(=O)[C@H](CCC(=O)O)NC(=O)[C@H](CC(C)C)NC(=O)CNC(=O)[C@H](CCC(=O)O)NC2=O [compound 238] |  | 241 | Nav1.5/Nav1.7 [1]: 2817
3 | CCCC[C@@H]1NC(=O)[C@H](Cc2c[nH]c3ccccc23)NC(=O)[C@H](CCCCN)NC(=O)[C@H](CCC(N)=O)NC(=O)[C@@H](NC(=O)[C@H](Cc2ccc(O)cc2)NC(=O)[C@H](CC(C)C)NC)CSSC[C@@H]2NC(=O)[C@@H]3CSSC[C@@H](C(=O)N[C@@H](CCCNC(=N)N)C(=O)N[C@@H](CCCCN)C(=O)N[C@@H](CCC(=O)O)C(=O)N[C@H](C(N)=O)[C@@H](C)CC)NC(=O)[C@H](Cc4c[nH]c5ccccc45)NC(=O)[C@H](CC(C)C)NC(=O)[C@H](CCCCN)NC(=O)[C@H](CSSC[C@H](NC(=O)[C@H]([C@@H](C)O)NC(=O)[C@H](Cc4c[nH]c5ccccc45)NC1=O)C(=O)N[C@@H](CC(=O)O)C(=O)N[C@@H](CO)C(=O)N[C@@H](CCCCN)C(=O)N[C@@H](CCCNC(=N)N)C(=O)N[C@@H](C)C(=O)N3)NC(=O)[C@H](CCCNC(=N)N)NC(=O)[C@H](CC(C)C)NC(=O)CNC(=O)[C@H](CCCCNC(=O)CCOCCOCCOCCOCCOCCOCCOCCOCCOCCOCCOCCOCCN)NC2=O [compound 466] |  | 19 | 
4 | CCCC[C@@H]1NC(=O)[C@H](Cc2c[nH]c3ccccc23)NC(=O)[C@H](CCCCN)NC(=O)[C@H](CCC(N)=O)NC(=O)[C@@H](NC(=O)[C@H](Cc2ccc(O)cc2)NC(=O)[C@H](N)CC(C)C)CSSC[C@@H]2NC(=O)[C@@H]3CSSC[C@@H](C(=O)N[C@@H](CCCNC(=N)N)C(=O)N[C@@H](CCCCN)C(=O)N[C@@H](CCC(=O)O)C(=O)N[C@H](C(N)=O)[C@@H](C)CC)NC(=O)[C@H](Cc4c[nH]c5ccccc45)NC(=O)[C@H](CC(C)C)NC(=O)[C@H](CCCCN)NC(=O)[C@H](CSSC[C@H](NC(=O)[C@H]([C@@H](C)O)NC(=O)[C@H](Cc4c[nH]c5ccccc45)NC1=O)C(=O)N[C@@H](CC(=O)O)C(=O)N[C@@H](CO)C(=O)N[C@@H](CCCCN)C(=O)N[C@@H](CCCNC(=N)N)C(=O)N[C@@H](C)C(=O)N3)NC(=O)[C@H](CCCNC(=N)N)NC(=O)[C@H](CC(C)C)NC(=O)CNC(=O)[C@H](CCCCNC(=O)CCOCCOCCOCCOCCOCCOCCOCCOCCOCCOCCOCCOCCN)NC2=O [compound 464] |  | 18 | 
5 | C#CC[C@@H]1NC(=O)[C@@H]2CSSC[C@H](NC(=O)[C@H](Cc3ccc(O)cc3)NC(=O)[C@@H](N)CC#N)C(=O)N[C@@H](CCC(N)=O)C(=O)N[C@@H](CCCCN)C(=O)N[C@@H](Cc3c[nH]c4ccccc34)C(=O)N[C@@H](CCCC)C(=O)N[C@@H](Cc3c[nH]c4ccccc34)C(=O)N[C@@H]([C@@H](C)O)C(=O)N[C@H]3CSSC[C@H](NC(=O)[C@H](CCCNC(=N)N)NC(=O)[C@H](CC(C)C)NC(=O)CNC1=O)C(=O)N[C@@H](CCCCN)C(=O)N[C@@H](CC(C)C)C(=O)N[C@@H](Cc1c[nH]c4c(Br)cccc14)C(=O)N[C@H](C(=O)N[C@@H](CCCNC(=N)N)C(=O)N[C@@H](CCCCN)C(=O)N[C@@H](CCC(=O)O)C(=O)N[C@H](C(N)=O)[C@@H](C)CC)CSSC[C@H](NC(=O)[C@H](C)NC(=O)[C@H](CCCNC(=N)N)NC(=O)[C@H](CCCCN)NC(=O)[C@H](CO)NC(=O)[C@H](CC(=O)O)NC3=O)C(=O)N2 [compound 875] | 0.0253 |  | 
6 | C#CC[C@H](N)C(=O)N[C@@H](Cc1ccc(O)cc1)C(=O)N[C@H]1CSSC[C@@H]2NC(=O)[C@@H]3CSSC[C@@H](C(=O)N[C@@H](CCCNC(=N)N)C(=O)N[C@@H](CCCCN)C(=O)N[C@@H](CCC(=O)O)C(=O)N[C@H](C(N)=O)[C@@H](C)CC)NC(=O)[C@H](Cc4c[nH]c5ccccc45)NC(=O)[C@H](CC(C)C)NC(=O)[C@H](CCCCN)NC(=O)[C@H](CSSC[C@H](NC(=O)[C@H]([C@@H](C)O)NC(=O)[C@H](Cc4c[nH]c5ccccc45)NC(=O)[C@H](CCCC)NC(=O)[C@H](Cc4c[nH]c5ccccc45)NC(=O)[C@H](CCCCN)NC(=O)[C@H](CCC(N)=O)NC1=O)C(=O)N[C@@H](CC(=O)O)C(=O)N[C@@H](CO)C(=O)N[C@@H](CCCCN)C(=O)N[C@@H](CCCNC(=N)N)C(=O)N[C@@H](C)C(=O)N3)NC(=O)[C@H](CCCNC(=N)N)NC(=O)[C@H](CCCNC(=N)N)NC(=O)CNC(=O)[C@H](CCC(=O)O)NC2=O [compound 705] | > 1 |  | 
7 | CC[C@H](C)[C@H](NC(=O)[C@@H](NC(=O)[C@H](CCCCN)NC(=O)[C@H](CCC(=O)O)NC(=O)[C@@H]1CSSC[C@@H]2NC(=O)[C@H](C)NC(=O)[C@H](CCCNC(=N)N)NC(=O)[C@H](CCCCN)NC(=O)[C@H](CO)NC(=O)[C@H](CC(=O)O)NC(=O)[C@@H]3CSSC[C@H](NC(=O)[C@H](CCCNC(=N)N)NC(=O)[C@H](CC(C)C)NC(=O)CNC(=O)[C@H](CCC(=O)O)NC(=O)[C@H](CSSC[C@H](NC(=O)[C@@H](N)Cc4ccc(O)cc4)C(=O)N[C@@H](CCC(N)=O)C(=O)N[C@@H](CCCCN)C(=O)N[C@@H](Cc4c[nH]c5ccccc45)C(=O)N[C@@H](CCSC)C(=O)N[C@@H](Cc4c[nH]c5ccccc45)C(=O)N[C@@H]([C@@H](C)O)C(=O)N3)NC2=O)C(=O)N[C@@H](CCCCN)C(=O)N[C@@H](CC(C)C)C(=O)N[C@@H](Cc2c[nH]c3ccccc23)C(=O)N1)[C@@H](C)CC)C(N)=O [compound 67] |  |  | IC50 (tonic, Table 11): > 1 µM
